By EC50 is commonly meant the concentration giving half of the maximal effect. As usually defined, the IC50 is the concentration that inhibits the measured activity by half.

Data on 68 compounds can be found in PubChem BioAssay AID179 (DTP/NCI, 2004).

The test system of the assay is CEM cells HIV-1 protection, formazan growth assay. The assay is described as follows: NCI AIDS Antiviral Assay. The note with it: for IC50: measured here: growth of uninfected CEM cells. In outline: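 Soluble formazan readout of cell growth; CEM cells ± HIV-1; 5 drug concs. ≥50% protection → retest; ≥50% again = moderately active; reproducible 100% = confirmed active.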

Several values for one entry are separate records, joined by “and”; a condition that tells them apart may be missing. Equal values may be shown once. Activity calls are given as the source filed them.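 How the source made its calls: active means compounds giving half or more protection of infected cells from virus-caused growth loss, again on retest; inactive means the rest.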

With `CC(C)CCCC(C)[C@H]1CCC2[C@@H]3CCC4Nc5nocc5C[C@]4(C)C3CC[C@@]21C` (some centres not stated), the result was inactive. The same measure, in the same setting: the same measure for `O=C(c1cccc(Cl)c1)c1c(O)c2ccccc2oc1=O`: “inactive”. Consider `CC(=N\N=C(N)N)/C(N=Nc1ccc(S(N)(=O)=O)cc1)=N\N=C(N)N`, for which the EC50 was above 200 µM and the IC50 stood at 1.58 µM.

As to `O=C1c2ccccc2C=c2c1nc1c(O)ccc3cccc2c31`, the EC50 was above 100 µM and the IC50 amounted to 15.5 µM. Take `O=C(/C=C/c1ccc2c(c1)OCO2)c1ccccc1`: the EC50 is above 200 µM; the 50% inhibitory concentration (IC50) is 7.08 µM and 11.2 µM.

In the case of `O=C(/C=C/c1ccc(Cl)c(Cl)c1)Oc1ccc(/C=C2\CCCCC2=O)cc1`, the EC50 was above 100 µM and the half-inhibitory concentration (IC50) stood at 5.25 µM. The corresponding values for `O=c1cc(-c2ccc3c(c2)OCO3)oc2c(Cl)cc(Cl)cc12` are above 100 µM and 57.5 µM.

As for `N#C/C(=C\NC(N)=S)C(=O)c1ccc2ccccc2c1`, the outcome was inactive.

On to `CC(=O)C(=[N+]=[N-])C(=O)N1CCOC1=O`, for which the EC50 is above 200 µM and the half-inhibitory concentration (IC50) is above 200 µM. In the case of `CS1(=O)=N/C(=N\C(=O)Nc2ccccc2)c2ccccc21` (configuration not stated), the outcome was inactive.

With `CCOc1nc(-c2ccccc2)cc(-c2ccc(N3CCOCC3)cc2)c1C#N`, the EC50 was above 200 µM and the concentration for half-maximal inhibition (IC50) amounted to 112 µM. The corresponding values for `Cc1csc(CP(=O)(OC(C)C)OC(C)C)n1` are above 200 µM and above 200 µM. Take `CCCCc1ccc(Nc2nc(Cl)c3ncn(COCCOC(C)=O)c3n2)cc1`: the EC50 is above 200 µM and the IC50 was 13.8 µM. The corresponding values for `O=[N+]([O-])c1ccc(-c2cn3nc(-c4ccccc4)c(-c4ccccc4)nc3n2)cc1` are above 13.2 µM and above 13.2 µM. The corresponding values for `COCOc1ccc(C(=O)C(C)c2ccc(OCOC)cc2OCOC)c(O)c1` (configuration not stated) are above 200 µM and 25.7 µM. Consider `CN(C)c1ccc(N=Nc2cccc3ccoc23)cc1`, for which the outcome was inactive. As to `CC[N+]1(C)CCC(O)(/C=C/c2ccc(OC)cc2)C(C(=O)/C=C/c2ccc(OC)cc2)C1` (configuration not stated), the EC50 was above 200 µM and the 50% inhibitory concentration (IC50) came to 1.12 µM. Turning to `CCC1CCC23OOC(C)(CCC2C1)O[C@@H]3OC` (some centres not stated), the EC50 is above 49 µM and the IC50 was above 49 µM. As to `COc1cc(N=Nc2cc(S(=O)(=O)O)c3cccnc3c2O)ccc1-c1ccc(N=Nc2cc(S(=O)(=O)O)c3cccnc3c2O)cc1OC`, the EC50 is 100 µM and the IC50 was 182 µM. The corresponding values for `C/C(=N/O)c1sc(-c2nc(C)c(/C(C)=N\O)s2)nc1C` are above 115 µM and above 115 µM. With `Cc1oc2nc(N(C)C)n3cnnc3c2c1C`, the outcome was inactive. Still for that read-out and setting: with `CCOC(=O)/C=C/CCC(C)(C)COC(C)=O` the entry was “inactive”. For the compound `Cc1c(Cl)cccc1NC(=O)C(=O)C(C(=O)c1ccccc1-c1ccccc1)C1OC(=O)c2ccccc21` (configuration not stated), the EC50 was above 69.2 µM and the IC50 is 26.3 µM. Taken in the same sequence, the figures for `O=C(/C=C/c1ccccc1)CCc1c(O)c2ccccc2oc1=O` were above 112 µM and 97.7 µM. Taken in the same sequence, the figures for `Cc1cccc(NC(=O)CC(=O)N2N=C(N(CCC#N)c3ccc(Cl)cc3)CC2c2ccccc2)c1` (configuration not stated) were above 100 µM and above 100 µM. Regarding `CC1(CC(=O)OC(C#C[Si](C)(C)C)Cc2ccccc2)OCCO1` (configuration not stated), the EC50 was above 200 µM and the concentration for half-maximal inhibition (IC50) was determined as 102 µM.

For `CC1=CC(C)(C)NC(=S)N1c1ccc(C)c(N2C(=S)NC(C)(C)C=C2C)c1`, the result was inactive. With `CCO[C@@H]1OC(=O)[C@H]2C(c3ccccc3)=NO[C@@H]12`, the EC50 was above 275 µM and the half-maximal inhibitory concentration (IC50) is above 275 µM. Turning to `CC(C)N(C(=O)C12C3C4C1C1C2C3C41C(=O)O)C(C)C` (configuration not stated), the EC50 is above 129 µM and the IC50 was above 129 µM. As for `CC1CN=C(Nc2ccc(F)c(Cl)c2)S1` (configuration not stated), the EC50 was above 200 µM and the IC50 stood at 132 µM. For `CC(C)CCCC(C)[C@H]1CC[C@H]2[C@@H]3CC[C@H]4C[C@@H](CCC=C(c5cc(Cl)c(OCc6ccccc6[N+](=O)[O-])c(C(=O)O)c5)c5cc(Cl)c(OCc6ccccc6[N+](=O)[O-])c(C(=O)O)c5)CC[C@]4(C)[C@H]3CC[C@]12C` (some centres not stated), the EC50 is > 200 µM and 120 µM; the outcome was inactive; the IC50 was > 200 µM and 166 µM. In the case of `CCOC(=O)c1oc2cc3c(c4c2c1-c1ccccc1N4C)C=CC(C)(C)O3`, the EC50 is above 200 µM and the concentration for half-maximal inhibition (IC50) turned out to be 120 µM. The corresponding values for `CN(C(=O)C1=CCCCCC1)c1ccccc1Br` are above 813 µM and 389 µM. Taken in the same sequence, the figures for `O=C(O)[C@H]1CCCN1C(=O)c1ccccc1SSc1ccccc1C(=O)N1CCC[C@H]1C(=O)O` were above 200 µM and above 200 µM. The corresponding values for `CN(C)Cc1cc(N=Nc2ccccc2Cl)ccc1O` are above 20 µM and 10.2 µM. `CC(=O)O[C@]12CCCCCC1C1(O)C(O)CCCC[C@H]12` (some centres not stated): the EC50 is above 200 µM and the IC50 is above 200 µM.

On to `CSC1=N/C(=C\c2ccccc2)C(=O)N1CN1CCCCC1`, for which the EC50 is above 200 µM and the IC50 is 115 µM. Taken in the same sequence, the figures for `CCOC(=O)C(NS(=O)(=O)c1ccccc1)(C(F)(F)F)P(=O)(OCC(C)C)OCC(C)C` (configuration not stated) were above 200 µM and 64.6 µM. As to `N#CCCN(CCC#N)c1ccc(C(=O)NN)cc1`, the EC50 was above 363 µM and the IC50 came to 288 µM. The corresponding values for `CCOC(=O)C(=O)NCCCN1CCOCC1` are above 1020 µM and above 1020 µM. On to `OCC(O)C(OC1OC(CO)C(O)C(O)C1O)c1nn(-c2ccc(Cl)cc2)c2nc3cc(Cl)ccc3nc12` (configuration not stated), for which the outcome was inactive. As for `O=[N+]([O-])c1ccccc1P1(=O)OCCO1`, the EC50 was above 200 µM and the IC50 was above 200 µM. `C=CCCCCCCCCCOC1C=CC(OC(C)=O)C(COC(C)=O)O1` (configuration not stated): the EC50 was above 200 µM and the IC50 amounted to 63.1 µM. Taken in the same sequence, the figures for `CN(C)c1cc(CNCCSC(C)(C)C)nc(CNCCSC(C)(C)C)c1` were above 200 µM and 4.57 µM. For the compound `CC(c1ccccc1O)C1CCCCC1N=O` (configuration not stated), the result was inactive. With `CCCCCCCCCCCCCC/C(C(=O)OC)=C(/O)C(=O)OCC`, the EC50 was above 91.2 µM and the IC50 turned out to be 28.8 µM. The corresponding values for `O=C1CC(=O)NC(=NN2C(=O)CSC2c2ccccc2)N1` (configuration not stated) are above 200 µM and above 200 µM. As for `CCCn1c(=O)c(N2CCN(c3ccccc3)CC2)nc2sc3ccccc3c21`, the EC50 is above 200 µM and the IC50 is above 200 µM. Take `CC1=CCCC(C)C1(C)CC/C(C)=C/CC/C(C)=C/CS(=O)(=O)CCN=C(N)N` (configuration not stated): the EC50 is above 61.7 µM and the IC50 stood at 10.7 µM. Taken in the same sequence, the figures for `O=C1c2ccccc2C(=O)C1C(c1ccc([N+](=O)[O-])cc1)C1C(=O)c2ccccc2C1=O` were above 4.47 µM and above 4.47 µM. Taken in the same sequence, the figures for `CC(C)CCCC(C)[C@H]1CCC2C3CC=C4C[C@@H](OP(=O)(O)OCCC=C(c5cc(Cl)c(O)c(C(=O)O)c5)c5cc(Cl)c(O)c(C(=O)O)c5)CC[C@]4(C)C3CC[C@@]21C` (some centres not stated) were above 100 µM and 38.9 µM. The corresponding values for `[N-]=[N+]=C1C(=O)NCN=C1c1ccccc1` are above 339 µM and above 339 µM. Regarding `NC(=O)c1cc(NC(=O)c2ccc(C(=O)Nc3cc(C(N)=O)cc(C4=NCCN4)c3)cc2)cc(C2=NCCN2)c1`, the EC50 was above 100 µM and the IC50 was above 100 µM. Take `COc1cc2c(cc1OC)C(=O)C1(C2)[C@H](c2ccccc2)C2C(=O)c3cc(OC)c(OC)cc3C2[C@H]1c1ccccc1` (some centres not stated): the EC50 was above 200 µM and the half-inhibitory concentration (IC50) was above 200 µM.

In the case of `CCOC(=O)C1(C/C=C\CBr)CCCCCCC1=O` (configuration not stated), the EC50 is above 200 µM and the IC50 was 16.2 µM.

Take `O=C(CCCCCCCCC(=O)N1C(=O)CC(=O)N(c2ccc(Cl)cc2)C1=S)N1C(=O)CC(=O)N(c2ccc(Cl)cc2)C1=S`: the EC50 is above 200 µM and the half-maximal inhibitory concentration (IC50) came to 81.3 µM. Taken in the same sequence, the figures for `O=c1[nH]c(=O)n(C2OC(CO)CC2F)cc1F` (configuration not stated) were above 200 µM and above 200 µM. For the compound `CCCCCCCCCCC(c1cc(Cl)c(OC)c(C(=O)OC)c1)c1cc(Cl)c(OC)c(C(=O)OC)c1`, the EC50 was above 38.9 µM and the 50% inhibitory concentration (IC50) is above 38.9 µM.

On to `COc1ccc(CC2Cc3ccccc3CC(=O)N2)cc1OC` (configuration not stated), for which the EC50 is above 200 µM and the IC50 was 17.8 µM. Taken in the same sequence, the figures for `O=C(O)c1n[nH]nc1Cl` were above 200 µM and above 200 µM. Regarding `CN1COCN=C1NC#N`, the EC50 was above 631 µM and the IC50 is above 631 µM.

`O=C(/C=C\c1ccccc1-c1ccccc1)c1ccccc1`: the EC50 is above 200 µM and the IC50 was above 200 µM. In the case of `O=C(CC(c1ccccc1)c1ccccc1)NCCCCN1CCCCCCC1`, the EC50 is above 200 µM and the 50% inhibitory concentration (IC50) is 12.9 µM. The corresponding values for `O=[N+]([O-])c1ccccc1NC1CCN(CCCC2(c3ccc(F)cc3)OCCO2)CC1` are above 200 µM and 12.9 µM. Taken in the same sequence, the figures for `CN1C(=O)CC2(C)C1=CCc1scnc12` (configuration not stated) were above 200 µM and above 200 µM. The corresponding values for `Cc1cc(C)nc(NS(=O)(=O)c2ccc(NC(=O)c3cccc4cc5ccccc5nc34)cc2)n1` are above 91.2 µM and 3.8 µM. Turning to `CCOC(=O)C(C)(C)Oc1ccc(N=[N+]=[N-])cc1`, the EC50 was above 200 µM and the 50% inhibitory concentration (IC50) is above 200 µM. With `O=C1Nc2ccccc2Nc2nc3cccccc-3c21`, the EC50 was above 100 µM and the IC50 is above 100 µM.
